This is an account of results in ChEMBL document CHEMBL4371024, “Synthesis and characterization of pyridoxine, nicotine and nicotinamide salts of dithiophosphoric acids as antibacterial agents against resistant wound infection” (Bioorg Med Chem, 2019).

The test system of data set [1] is Staphylococcus aureus. The data set is described as follows: Inhibition of extracellular component secretion and matrix formation in Staphylococcus aureus assessed as uncovering of bacterial cells at 1 uM by scanning electron microscopy. It counts as functional, organism-based.
In data set [2] the test system is Pseudomonas aeruginosa. Briefly: Inhibition of extracellular component secretion and matrix formation in Pseudomonas aeruginosa assessed as uncovering bacterial cells at 1 uM by scanning electron microscopy. Format: functional, organism-based.
The test system of data set [3] is Staphylococcus aureus. Briefly: Inhibition of extracellular component secretion and matrix formation in Staphylococcus aureus assessed as induction of bacterial aggregation at 1 uM by scanning electron microscopy. Format: functional, organism-based.
In data set [4] the test system is Pseudomonas aeruginosa. The data set is described as follows: Inhibition of extracellular component secretion and matrix formation in Pseudomonas aeruginosa assessed as induction of bacterial aggregation at 1 uM by scanning electron microscopy. It counts as functional, organism-based.
Data set [5] concerns Pseudomonas aeruginosa. The data set is described as follows: Antibacterial activity against multidrug-resistant Pseudomonas aeruginosa after 24 hrs by broth dilution method. Format: functional. In general terms: Dilution methods test growth across graded concentrations, often in twofold steps.
The subject of a further data set is Escherichia coli. The data set is described as follows: Antibacterial activity against multidrug-resistant and sensitive Escherichia coli after 24 hrs by broth dilution method. Format: functional.
The test system of data set [6] is Staphylococcus aureus. Briefly: Antibacterial activity against methicillin, cefoxytin-resistant and levofloxacin, erythromycin, clindamycin-senstitive Staphylococcus aureus after 24 hrs by broth dilution method. It counts as functional.
Data set [7] is described as follows: Cytotoxicity against human HSF cells after 24 hrs by MTT assay. It counts as cell-based. Background: Formazan colour is commonly taken as a measure of viable cells.
Data set [8] deals with Pseudomonas aeruginosa. Briefly: Ratio of MBC to MIC against Pseudomonas aeruginosa ATCC 27853. Format: functional.
In data set [9] the test system is Staphylococcus aureus. Briefly: Antibacterial activity against multidrug-resistant Staphylococcus aureus after 24 hrs by broth dilution method. It counts as functional.
Data set [10] in a line: Aggregation property of the compound in DMEM culture medium at 1 mM after 1 hr by dynamic light scattering method. It counts as physicochemical. The note with it: 1000 µM.
Data set [11] deals with Pseudomonas aeruginosa. The data set is described as follows: Bactericidal activity against Pseudomonas aeruginosa ATCC 27853 incubated for 24 hrs followed by replating on Mueller-Hinton agar and further incubated for 24 hrs. The note with it: ATCC 27853, 24 h. It counts as functional.
Data set [12] relates to Klebsiella pneumoniae. Briefly: Bactericidal activity against Klebsiella pneumoniae incubated for 24 hrs followed by replating on Mueller-Hinton agar and further incubated for 24 hrs. Format: functional.
Data set [13] relates to Staphylococcus aureus. The data set is described as follows: Drug interaction with Staphylococcus aureus cellular surface assessed as decrease in zeta potential at 1 mM treated for 1 hr followed by washing and measured by dynamic light scattering method. Format: functional.
Data set [14] in a line: Cytotoxicity against human HSF cells after 72 hrs by MTT assay. It counts as cell-based.
Data set [15] deals with Staphylococcus aureus. The data set is described as follows: Antibacterial activity against Staphylococcus aureus ATCC 29213 after 24 hrs by broth dilution method. Format: functional. The note with it: ATCC 29213, 24 h.
Data set [16] deals with Klebsiella pneumoniae. Briefly: Antibacterial activity against Klebsiella pneumoniae after 24 hrs by broth dilution method. It counts as functional.
Data set [17] relates to Staphylococcus aureus. Briefly: Antibacterial activity against methicillin, cefoxytin, levfloxacin-resistant and erythromycin, clindamycin-senstitive Staphylococcus aureus after 24 hrs by broth dilution method. It counts as functional.
Data set [18] has as its system Klebsiella pneumoniae. Briefly: Antibacterial activity against multidrug-sensitive Klebsiella pneumoniae after 24 hrs by broth dilution method. It counts as functional.
Data set [19] has as its system Staphylococcus aureus. The data set is described as follows: Bactericidal activity against Staphylococcus aureus ATCC 29213 incubated for 24 hrs followed by replating on Mueller-Hinton agar and further incubated for 24 hrs. The note with it: ATCC 29213, 24 h. Format: functional.
The subject of data set [20] is Pseudomonas aeruginosa. Briefly: Antibacterial activity against multidrug-sensitive Pseudomonas aeruginosa after 24 hrs by broth dilution method. It counts as functional.
The test system of data set [21] is Pseudomonas aeruginosa. Briefly: Drug interaction with Pseudomonas aeruginosa cellular surface assessed as decrease in zeta potential at 1 mM treated for 1 hr followed by washing and measured by dynamic light scattering method. It counts as functional.
In data set [22] the test system is Staphylococcus aureus. The data set is described as follows: Ratio of MBC to MIC against Staphylococcus aureus ATCC 29213. Format: functional.
The nature of data set [23]: Aggregation property of the compound assessed as mean hydrodynamic diameter at 1 mM after 1 hr by dynamic light scattering method. The settings on record: 1000 µM. Format: physicochemical.
Another data set has as its system Enterobacter cloacae. The data set is described as follows: Antibacterial activity against multidrug-resistant and sensitive Enterobacter cloacae after 24 hrs by broth dilution method. Format: functional.
For data set [24], the system named is Klebsiella pneumoniae. The data set is described as follows: Ratio of MBC to MIC against Klebsiella pneumoniae. Format: functional.
The subject of data set [25] is Pseudomonas aeruginosa. The data set is described as follows: Antibacterial activity against Pseudomonas aeruginosa ATCC 27853 after 24 hrs by broth dilution method. Format: functional. The settings on record: ATCC 27853, 24 h.
Data set [26] has as its system Staphylococcus epidermidis. Briefly: Antibacterial activity against Staphylococcus epidermidis after 24 hrs by broth dilution method. Format: functional.
In data set [27] the test system is Erythrocyte. The data set is described as follows: Hemolytic activity in human erythrocytes at >100 uM. Format: ADME, cell-based.
In data set [28] the test system is Pseudomonas aeruginosa. Briefly: Antibacterial activity against ciprofloxacin, imipenem, meronem-resistant and cefepime, piperacillin-tazobactam-sensitive Pseudomonas aeruginosa after 24 hrs by broth dilution method. Format: functional.
Data set [29] has as its system Pseudomonas aeruginosa. The data set is described as follows: Antibacterial activity against ciprofloxacin-resistant and multidrug-sensitive Pseudomonas aeruginosa after 24 hrs by broth dilution method. Format: functional.
In data set [30] the test system is Pseudomonas aeruginosa. Briefly: Inhibition of extracellular component secretion and matrix formation in Pseudomonas aeruginosa assessed as induction of morphological changes at 1 uM by scanning electron microscopy. Format: functional, organism-based.
In data set [31] the test system is Staphylococcus aureus. Briefly: Inhibition of extracellular component secretion and matrix formation in Staphylococcus aureus assessed as inhibition of polysaccharide matrix formation at 1 uM by scanning electron microscopy. It counts as functional, organism-based.
Data set [32] concerns Staphylococcus aureus. The data set is described as follows: Inhibition of extracellular component secretion and matrix formation in Staphylococcus aureus assessed as induction of morphological changes at 1 uM by scanning electron microscopy. It counts as functional, organism-based.
The subject of data set [33] is Pseudomonas aeruginosa. Briefly: Inhibition of extracellular component secretion and matrix formation in Pseudomonas aeruginosa assessed as inhibition of polysaccharide matrix formation at 1 uM by scanning electron microscopy. It counts as functional, organism-based.
Data set [34] has as its system Erythrocyte. The data set is described as follows: Hemolytic activity in human erythrocytes at 1 mM. It counts as ADME, cell-based. The note with it: 1000 µM.

Molecules are shown by their SMILES. In brackets after ≈: the same amount, converted by molar mass. Activity calls are given as the source filed them.

For `CC(C)[C@@H]1CC[C@@H](C)C[C@H]1OP(=S)(S)O[C@@H]1C[C@H](C)CC[C@H]1C(C)C.Cc1ncc(CO)c(CO)c1O` [listing 1 of 2 here], the result with Staphylococcus aureus [1], with Pseudomonas aeruginosa [2], in the data set on Staphylococcus aureus [3] and in the data set on Pseudomonas aeruginosa [4] was Active.
As to `CC(C)[C@@H]1CC[C@@H](C)C[C@H]1OP(=S)(S)O[C@@H]1C[C@H](C)CC[C@H]1C(C)C.CN1CCC[C@H]1c1cccnc1` [listing 1 of 2 here], the minimal inhibitory concentration (MIC) (usually the least concentration at which growth counts as inhibited) against Pseudomonas aeruginosa [5] came to 360 µM; in the data set on Escherichia coli, 360 µM; with Staphylococcus aureus [6] it was 11 µM; with Staphylococcus aureus [9], 23 µM; in the data set with Staphylococcus aureus [15], 20 µM; with Klebsiella pneumoniae [16], 320 µM. Moreover, the MIC with Staphylococcus aureus [17] turned out to be 11 µM; in the data set with Klebsiella pneumoniae [18], 360 µM; in the data set with Pseudomonas aeruginosa [20], 360 µM; against Enterobacter cloacae it was 360 µM; with Pseudomonas aeruginosa [25], 320 µM; in data set [26], 20 µM. In addition, the MIC in the data set on Pseudomonas aeruginosa [28] and against Pseudomonas aeruginosa [29] was 360 µM each time. For the same molecule, the IC50 (commonly the midpoint of a concentration-inhibition curve) in data set [7] worked out at 81.3 µM; in [14] it was 57.6 µM. Also, the Ratio with Pseudomonas aeruginosa [8], in the data set with Staphylococcus aureus [22] and with Klebsiella pneumoniae [24] was 1 each time. The values for the Activity entry (in data set [10]; in data set [23]; in the data set on Erythrocyte [27]) were “Active”, 141.7 nm and “Toxic”, respectively. The MBC (in general, the smallest concentration meeting the test's criterion for killing) in the data set with Pseudomonas aeruginosa [11] is 320 µM; against Klebsiella pneumoniae [12], 640 µM; against Staphylococcus aureus [19], 20 µM. Besides, the “fold change (FC)” value with Staphylococcus aureus [13] and in the data set on Pseudomonas aeruginosa [21] was 1.2 in each case.
As to `CC(C)[C@@H]1CC[C@@H](C)C[C@H]1OP(=S)(S)O[C@@H]1C[C@H](C)CC[C@H]1C(C)C.Cc1ncc(CO)c(CO)c1O` [listing 2 of 2 here], the minimum inhibitory concentration (MIC) against Pseudomonas aeruginosa [5] came out at 323 µM; with Escherichia coli, 323 µM; with Staphylococcus aureus [6], 20 µM; in the data set with Staphylococcus aureus [9] it was 20 µM; in the data set on Staphylococcus aureus [15] it was 20 µM; in the data set with Klebsiella pneumoniae [16] it was 320 µM. The MIC in the data set with Staphylococcus aureus [17] was 20 µM; against Klebsiella pneumoniae [18], 323 µM; in the data set on Pseudomonas aeruginosa [20], 323 to 647 µM; against Enterobacter cloacae, 323 µM; against Pseudomonas aeruginosa [25] it was 320 µM; in [26] it was 10 µM. For the same molecule, the minimal inhibitory concentration (MIC) in the data set on Pseudomonas aeruginosa [28] and in the data set with Pseudomonas aeruginosa [29] was 323 µM in each case. Besides, the IC50 in data set [7] came out at 92.2 µM; in data set [14] it was 48.6 µM. The Ratio in the data set on Pseudomonas aeruginosa [8], in the data set with Staphylococcus aureus [22] and with Klebsiella pneumoniae [24] was 2 in each case. Further, the Activity result in [10] was “Active”; in data set [23] it was 108.9 nm; with Erythrocyte [27], “Toxic”. The MBC with Pseudomonas aeruginosa [11] worked out at 320 µM; in the data set on Klebsiella pneumoniae [12], 640 µM; against Staphylococcus aureus [19], 40 µM. The “fold change (FC)” value in the data set with Staphylococcus aureus [13] and with Pseudomonas aeruginosa [21] was 1.2 each time.
`CC(C)[C@@H]1CC[C@@H](C)C[C@H]1OP(=S)(S)O[C@@H]1C[C@H](C)CC[C@H]1C(C)C.CN1CCC[C@H]1c1cccnc1` [listing 2 of 2 here]: the result in the data set on Pseudomonas aeruginosa [30], in the data set with Staphylococcus aureus [31], with Staphylococcus aureus [32] and with Pseudomonas aeruginosa [33] was Active.
In the case of `CC(C)[C@@H]1CC[C@@H](C)C[C@H]1OP(=S)(S)O[C@@H]1C[C@H](C)CC[C@H]1C(C)C`, the Activity entry with Erythrocyte [34] was “Toxic”. Besides, the MIC against Staphylococcus aureus [15] came to 190 µM (≈ 77.3 µg/mL); in the data set with Klebsiella pneumoniae [16], 1540 µM (≈ 626 µg/mL); with Pseudomonas aeruginosa [25], 380 µM (≈ 155 µg/mL); in data set [26], 380 µM (≈ 155 µg/mL).
